Here are results for 9 compounds from PMC4411102 (PLoS ONE, 2015).

No end group written: not given here.

For one series, the system named is CXCR4. The following applies: cited from earlier work.
A further series concerns CCR5. Further details: method as in PMID 20721836. The following applies: cited from earlier work.
The test system of another series is vaginal mucosa. The following applies: cited from earlier work. The text has this:
Its activity is directed more towards the virus than to host cells. Some of the known anti-HIV peptides such as defensins have better selectivity index, but many of such peptides/molecules act as a double edged-sword. These peptides inhibit HIV infection but also lead to inflammation and/or potentiate pathogen invasion.

For another series, the system named is HIV-host cell fusion. The note with it: cited from earlier work.
Another series has as its system HIV. The note with it: cited from earlier work. The text has this:
HIV-1 infection can be targeted at various stages, for example, viral entry, viral replication or assembly of viral components. HIV entry into the host cells is facilitated by binding of viral envelope glycoprotein (gp120) to host CD4 receptor [3, 4]. CD4-gp120 interaction initiates a cascade of events that stimulates gp41 to promote viral and host membrane fusion. Inhibition of gp120-CD4 interaction or virus-host cell fusion thus appears to be an attractive strategy to prevent HIV-1 infection. Towards this, significant advances have been made. […] Moreover, some of the AMPs cause adverse effects on vaginal commensals like lactobacilli which are required to maintain low pH in vaginal mucosa.

The subject of the next series is HIV-1 IIIB and ADA5. The series is described as follows: Time-of-addition assay in TZM-bl cells. The following applies: 71.40 μM.
In another series the test system is gp120 of HIV-1 BaL. The series is described as follows: Binding ELISA, gp120 of HIV-1 BaL. The following applies: 2.2–71.40 μM coated, gp120 100ng/well. The protocol:
(§1) After blocking with 3% bovine serum albumin (BSA) in PBS for 30 min, 100 μl of gp120 (100ng/well) in PBS-0.05% BSA was added to each well and incubated for 2 hrs at 37°C. After three washings with PBS-Tween-20 (PBS-T), cells were incubated with anti-gp120 antibody at 1:200 dilution and then with horse radish peroxidase-(HRP) conjugated secondary goat anti-human antibody (1:10000 dilution) for 1 hr at 37°C. This was followed by incubation with O-phenylenediamine for 20 min. The absorbance was measured at 492 nm on a microplate ELISA reader (ELx-800, Bio-Tek Instruments, USA). Background values obtained in the wells without HbAHP-25 were subtracted from the absorbance values from wells having all other reagents.
A general note: In an ELISA, binding on a coated surface is turned into a signal by an enzyme label.

For the next series, the system named is gp120 of HIV-1 IIIB. The series is described as follows: Binding ELISA, gp120 of HIV-1 IIIB. The following applies: for Binding of designed peptides to gp120: peptide-coated plate, 500ng gp120, 2 hrs at 37°C, 492nm (S1 Fig). The protocol:
as §1
Supplementary file pone.0124839.s001.tif: S1 Fig Binding of designed peptides to gp120. Peptides that were designed in silico were evaluated for their binding to gp120 of HIV-1 IIIB. Peptides were coated on 96 well microtiter plate for 16 hrs and then incubated with 500ng of gp120 for 2 hrs at 37°C. This was followed by addition of anti-gp120 antibody, and absorbance was read at 492nm. Background absorbance was subtracted from the wells where peptides were not coated. […] (TIF) Click here for additional data file.

A further series concerns HIV-1 IIIB. Briefly: Anti-HIV activity, p24 antigen assay in H9 cells. The class given is cell-based. Set-up: key to Anti-HIV activity: +: moderate; ++: significant; NA: No activity. The following applies: for Anti-HIV activity (in words): 0.1 MoI HIV-1 IIIB pre-incubated with peptide, H9 cells, p24 on day 4. The protocol: Supplementary file pone.0124839.s002.tif: S2 Fig Anti-HIV activity of 3 designed peptides. Anti HIV activity of three peptides was determined using H9 cells. H9 cells were infected for 4 hrs with 0.1 MoI of HIV-1 IIIB pre-incubated with various concentrations of peptides. Peptides were added post infection as well. Supernatant was collected on day 4 post infection, and p24 antigen assay was performed. […] (TIF) Click here for additional data file.
Supplementary file pone.0124839.s003.tif: S3 Fig Anti-HIV activity of peptide analogues of peptide 1. After modifying the peptide 1, we performed anti-HIV assay as earlier. HIV-1 IIIB was pre-incubated with peptide analogues for 1 hr and then added to H9 cells for 4 hrs. Levels of p24 levels were determined on day 4 post infection. […] (TIF) Click here for additional data file.

Experimental for HIV-1 IIIB and ADA5: Luciferase activity was measured at 48 hrs post treatment using Luminometer (ELx-800, Bio-Tek Instruments, USA). VRC01 (0.1 μM) antibody was used as a positive control.

For `c1cc(CN2CCCNCCNCCCNCC2)ccc1CN1CCCNCCNCCCNCC1` [AMD3100], the CXCR4 antagonism result in the series with CXCR4 is on record as “CXCR4 antagonists”.

`CCCCOCCOc1ccc(-c2ccc3c(c2)/C=C(/C(=O)Nc2ccc([S@@+]([O-])Cc4cncn4CCC)cc2)CCCN3CC(C)C)cc1` [Cencriviroc]: the CCR5 antagonism result in the series on CCR5 is on record as “CCR5 antagonists”.

Take `CCCCCCCCCc1ccc(OCCOCCOCCOCCOCCOCCOCCOCCOCCO)cc1` [Nonoxynol-9]: in the series with vaginal mucosa, the “Effects on vaginal mucosa” value is “caused detrimental effects on vaginal mucosa”.

Enfuvirtide: the “Effect on HIV-host cell fusion” value with HIV-host cell fusion is recorded as “interfere with the HIV-host cell fusion”. Besides, the “Alleviation of HIV infections” value in the series with HIV is recorded as “alleviate HIV infections effectively”. Also, the “Resistance on long term treatment” value in the series on HIV (mutations in gp41) is “leads to resistance”.

Consider “PLVKDVLRSLCNHAHKCVTLALLRH [Scrambled peptide(sP), 25 mer scrambled peptide, negative control]”, for which the “Inhibition (scrambled control)” value in the series with HIV-1 IIIB and ADA5 is listed as “no inhibition”. The “Binding to recombinant gp120 of HIV-1 BaL” value with gp120 of HIV-1 BaL is “did not bind”. Besides, in the series with gp120 of HIV-1 IIIB (ELISA, 2.2–71.40 μM coated, gp120 100ng/well), the “Binding to recombinant gp120 of HIV-1 IIIB” value is “did not bind”.

In the case of “SAQVKGHGKKVADALTNAVAHVDDMPNAL [Peptide-2, Hb-α subunit derived 29-residue peptide (52–80)]”, the “Anti-HIV activity (in words)” value is “failed to demonstrate any activity” with HIV-1 IIIB (listed as peptide 2) and “did not show any anti-HIV-1 activity” in the series on HIV-1 IIIB (listed as peptide-2). Besides, the “Binding of designed peptides to gp120” value in the series on gp120 of HIV-1 IIIB was “failed to show any binding”.

“VKGHGKKVADALTNAVAHVDDMPNALSAL [Peptide-3, Hb-α subunit derived 29-residue peptide (55–83)]”: the “Anti-HIV activity (in words)” value in the series on HIV-1 IIIB was “showed anti-HIV activity”. For the same compound, the Anti-HIV activity entry with HIV-1 IIIB (class symbols of Table 1, HIV-1 IIIB in H9 cells, p24 (S2, S3 Fig)) is on record as “+”. Further, the “Binding of designed peptides to gp120” value in the series on gp120 of HIV-1 IIIB is on record as “showed binding to gp120 of HIV-1 IIIB”.

Turning to “human defensin-6: antimicrobial peptide, printed as human defensin-5 and 6 (AFTCHCRRSCYSTEYSYGTCTVMGINHRFCCL; ends and bridges not checked; cysteine pairing not given here; UniProt Q01524 69-100, looked up)”, the “Effect on HIV infection” value in the series on HIV is recorded as “exacerbate HIV infection”.

Take “indolicidin: natural antimicrobial peptide (ILPWKWPWWPWRR; not fully specified (C-terminus); ends and bridges not checked; UniProt P33046 131-143, looked up)”: in the series on HIV, the Anti-HIV activity entry is recorded as “reported to have anti-HIV activity”.
